Data: patent publication US6541463B1, “Inhibitors of type 5 and type 3 17β-hydroxysteroid dehydrogenase and methods for their use” (Endorecherche, Inc., priority 1998, dated 2003)

Molecular target: T1, androgen receptor (Rattus norvegicus, UniProt P15207)
T1 construct: from tissue; host or cells: ventral prostate cytosol of gonadectomized male Sprague-Dawley rats
T1 sequence (P15207 1-902): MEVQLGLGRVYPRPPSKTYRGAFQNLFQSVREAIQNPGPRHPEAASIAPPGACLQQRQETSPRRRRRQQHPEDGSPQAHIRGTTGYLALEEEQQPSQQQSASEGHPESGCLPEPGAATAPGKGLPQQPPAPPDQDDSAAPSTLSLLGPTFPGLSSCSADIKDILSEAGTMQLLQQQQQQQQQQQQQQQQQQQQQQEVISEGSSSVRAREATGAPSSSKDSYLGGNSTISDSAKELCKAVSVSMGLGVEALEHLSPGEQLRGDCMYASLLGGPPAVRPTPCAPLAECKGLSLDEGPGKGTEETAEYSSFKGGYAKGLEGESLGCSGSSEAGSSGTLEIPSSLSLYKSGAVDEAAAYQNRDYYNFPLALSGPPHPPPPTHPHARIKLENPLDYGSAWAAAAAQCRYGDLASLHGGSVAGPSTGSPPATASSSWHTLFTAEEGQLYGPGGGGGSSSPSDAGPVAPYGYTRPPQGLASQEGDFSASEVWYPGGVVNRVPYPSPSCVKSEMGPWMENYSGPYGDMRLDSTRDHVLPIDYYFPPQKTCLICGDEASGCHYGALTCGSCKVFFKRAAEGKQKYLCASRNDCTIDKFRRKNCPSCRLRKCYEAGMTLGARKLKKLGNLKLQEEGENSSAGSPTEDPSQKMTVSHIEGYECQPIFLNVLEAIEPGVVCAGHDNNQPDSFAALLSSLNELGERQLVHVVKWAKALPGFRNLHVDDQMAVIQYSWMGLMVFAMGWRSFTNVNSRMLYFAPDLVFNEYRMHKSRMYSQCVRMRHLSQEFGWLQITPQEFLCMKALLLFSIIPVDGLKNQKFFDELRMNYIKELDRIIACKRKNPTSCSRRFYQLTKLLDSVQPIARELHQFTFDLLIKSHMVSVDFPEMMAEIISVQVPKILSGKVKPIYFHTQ
Experiment: Androgen receptor (AR) assay: inhibition of [3H]R1881 binding, prostate cytosol
Procedure: The manner in which the percentage of inhibition is determined is described in “Other Tests; D-Androgen Receptor (AR) Assays”. Lower numbers are desirable.
Male Sprague-Dawley rats (Crl: CD(SD)Br) weighing 200-300 g were obtained from Charles-River Inc. (St-Constant, Québec, Canada). The rats were gonadectomized under general anesthesia (Isoflurane) and killed by cervical dislocation 24 hours later. The ventral prostates were rapidly removed, dissected free from adhering tissue and frozen on dry-ice. Prostates were kept at −80° C. until assay.
All subsequent steps were performed at 0-4° C. Prostates were homogenized in 5 vol (wt/vol) of buffer A (25 mM Tris-HCl, 1.5 mM EDTA disodium salt, 10 mM α-monothioglycerol, 10% glycerol, and 10 mM sodium molybdate, pH 7.4), using a Polytron PT-10 homogenizer (Brinkman Instruments, Canada) at a setting of 5 for three periods of 10 sec, with intervals of 10 sec for cooling. The homogenate was then centrifuged at 105,000×g for 60 min in a Beckman L5-65 ultracentrifuge (Fullerton, Calif.).
Androgen binding was measured using the hydroxylapatite assay (HAP). In brief, the radioactive steroid [^3H]R1881 solubilized in ethanol was diluted into buffer A. Aliquots of prostate cytosol preparation (0.1 ml) were then incubated with 8 nM [^3H]R1881 (0.1 ml, ˜200,000 cpm) in the presence or absence of the indicated concentrations of unlabeled compounds (0.1 ml, prepared in buffer A containing 10% ethanol) for 16-18 h at 0-4° C. […] Unbound steroids were separated by incubation for 40 min at 0-4° C. with 0.3 ml HAP prepared in buffer P (50 mM, Tris-HCl, 10 mM KH2PO4, pH 7.4) as follows: 10 g HAP were washed with buffer P until the supernatant reached a pH of 7.4 and then following centrifugation and decantation of the supernatant, 37.5 ml of buffer P were added. After incubation with HAP and 10 minutes of centrifugation at 1,000×g, the pellet was washed 3 times with 1 ml buffer P. Thereafter, the radioactivity was extracted from the pellet by incubation at room temperature for 60 minutes with 1 ml EtOH. After centrifugation, the supernatant was decanted into a scintillation vial and the pellet was extracted again with ethanol.

Row | Compound | inhibition at 1 µM (Table 4′, E^−6) [%] | inhibition at 0.01 µM (Table 4′, E^−8) [%] | further results
1 | CC(C)C[C@@H]1CC2C3C=CC4=CC(=O)CC[C@]4(C)C3CC[C@]2(C)C1=O (stereo partly shown) [EM-1273-CS] |  |  | inhibition at 1 µM (E^−6): 0%; inhibition at 0.01 µM (E^−8): 0%
2 | COCCOc1cc2c(cc1C(N)=O)C1CC[C@@]3(C)C(CC[C@@]34CCC(C)(C)C(=O)O4)C1CC2 (stereo partly drawn) [EM-1424, 2-Carbamoyl-3-(2″-methoxyethyloxy)-1,3,5(10)-estratrien 17(R)-spiro-2′-(5′,5′-dimethyl-6′-oxo)tetrahydropyran] | 2 | 2 | 
3 | CCCC(=O)OC1(C(C)=O)CCC2C3C=C(C)C4=CC(=O)CC(C)C4(C)C3CCC21C (stereo not shown) [CS-245] |  |  | % Inhibition Androgen Receptor (E^−6): 71%; % Inhibition Androgen Receptor (E^−8): 5%
4 | COCCOc1cc2c(cc1C(=O)OC)C1CC[C@@]3(C)C(CC[C@@]34CCC(C)(C)C(=O)O4)C1CC2 (stereo partly drawn) [EM-1402-CS, 2-Carbomethoxy-3-(2″-methoxyethyloxy)-1,3,5(10)-estratrien 17(R)-spiro-2′-(5′,5′-dimethyl-6′-oxo)tetrahydropyran] | 0 | 0 | 
5 | COc1ccc2c(c1)CCC1C2CCC2(C)C1CCC21CCC(C)(C)C(=O)O1 (stereo not shown) [EM-1370] | 2 | 3 | 
6 | CCC(=O)O[C@]1(C(C)=O)CCC2C3C=C(C)C4=CC(=O)C[C@H](C)[C@]4(C)C3CC[C@@]21C (stereo partly shown) [CS-243] |  |  | % Inhibition Androgen Receptor (E^−6): 33%; % Inhibition Androgen Receptor (E^−8): 0%
7 | COc1ccc2c(c1)C(=O)CC1C2CC[C@@]2(C)C1CC[C@@]21CCC(C)(C)C(=O)O1 (stereo partly shown) [EM-1394] | 0 | 0 | 
8 | COCCOc1cc2c(cc1C(=O)O)C1CCC3(C)C(CCC34CCC(C)(C)C(=O)O4)C1CC2 [EM-1405, 2-Carboxy-3-(2″-methoxyethyloxy)-1,3,5(10)-estratrien-17(R)-spiro-2′-(5′,5′-dimethyl-6′-oxo)tetrahydropyran] | 0 | 0 | 
9 | CCC[C@]1(F)CC2C3C=CC4=CC(=O)CC[C@]4(C)C3CC[C@]2(C)C1=O (stereo partly shown) [EM-1183] |  |  | inhibition at 1 µM (E^−6): 1%; inhibition at 0.01 µM (E^−8): 0%
10 | CC12CCC3c4ccc(F)cc4CCC3C1CCC21CCCC(=O)O1 (stereo not shown) [EM-1170-CS] | 1 | 0 | 
11 | CCS(=O)(=O)Oc1ccc2c(c1)CCC1C2CCC2(C)C1CCC21CCC(C)(C)C(=O)O1 (stereo not shown) [EM-1364-CS] | 0 | 0 | 
12 | CSCCOc1ccc2c(c1)CCC1C2CCC2(C)C1CCC21CCCC(=O)O1 [CS-242, 3-Methylthioethyloxy-1,3,5(10)-estratrien-17(R)-spiro-2′-(6′-oxo) Tetrahydropyran] | 0 | 0 | 
13 | CN(C)CCOc1ccc2c(c1)CCC1C2CCC2(C)C1CCC21CCC(C)(C)C(=O)O1 (stereo not shown) [EM-1389-CS] | 0 | 0 | 
14 | CC1(C)CCC2(CCC3C4CCc5c(cc(Cl)c(O)c5Cl)C4CCC32C)OC1=O (stereo not shown) [EM-1391-CS] | 0 | 0 | 
15 | CC(=O)O[C@]1(C(=O)N(C)C)CCC2C3C=C(C)C4=CC(=O)CC[C@]4(C)C3CC[C@@]21C (stereo partly shown) [EM-1159] |  |  | % Inhibition Androgen Receptor (E^−6): 1%; % Inhibition Androgen Receptor (E^−8): 1%
16 | CC1(C)CCC2(CCC3C4CCc5ccccc5C4CCC32C)OC1=O (stereo not shown) [CS-224] | 0 | 0 | 
17 | CN1C(=O)C=C[C@]2(C)C3CC[C@@]4(C)C(CC[C@@]45CCCC(=O)O5)C3CCC12 (stereo partly shown) [EM-1122-CS] |  |  | inhibition at 1 µM (Table 5 column 13, E^−6): 8%; inhibition at 0.01 µM (Table 5 column 13, E^−8): 1%
